The values below come from US7387888B2, “Coronamycins” (priority 2004, dated 2008).

Molecules are shown by their SMILES. Converted amounts (≈) assume the structure as drawn.

The subject of data set [1] is Candida albicans (ATCC 24433). As to the kind of experiment: microbroth dilution assay of human pathogenic yeasts (NCCLS M27A, Alamar Blue). It counts as cell-based. The following applies: 24 to 48 hours. The protocol: (§1) Microbroth dilution assays of human pathogenic yeasts were performed as described in the NCCLS M27A (NCCLS, 1997) with the addition of Alamar Blue (Trek Diagnostics Systems, Inc., Westlake, Ohio) as a colorimetric indicator of viability (Espinel-Ingroff et al., 1999, J. Clin. Microbiol. 37: 591-595). All isolates were obtained from the ATCC. The assays were performed in sterile 96 well plates. The total volume per well was 100 μl. Two wells were inoculated for a given concentration. The MIC was defined as that concentration of compound resulting in no visible growth of the test organism after 24 to 48 hours of incubation with the exception of Cryptococcus neoformans which was read at 72 hours. Flucytosine was included as a control antifungal compound.

In data set [2] the test system is Candida albicans (ATCC 90028). The data set is described as above. It is filed as cell-based. The following applies: 24 to 48 hours. The protocol: as §1
For data set [3], the system named is Candida krusei (ATCC 6258). The description is as above. It is filed as cell-based. The following applies: 24 to 48 hours. How it is done: as §1
Data set [4] relates to Candida parapsilosis (ATCC 22019). Described as above. It is filed as cell-based. The following applies: 24 to 48 hours. How it is done:
as §1

For data set [5], the system named is Candida parapsilosis (ATCC 90018). Described as above. It counts as cell-based. To be noted: 24 to 48 hours. The protocol: as §1
The subject of data set [6] is Candida tropicalis (ATCC 750). The description is as above. It counts as cell-based. The following applies: 24 to 48 hours. How it is done: as §1
Data set [7] relates to Cryptococcus neoformans (ATCC 32045). Described as above. To be noted: read at 72 hours. It counts as cell-based. The protocol:
as §1

The subject of data set [8] is Saccharomyces cerevisiae (ATCC 9763). The data set is described as above. It is filed as cell-based. The following applies: 24 to 48 hours. How it is done:
as §1

In data set [9] the test system is Plasmodium falciparum strain CSC-1 (Honduras). As to the kind of experiment: antimalarial assay against Plasmodium falciparum (3H-phenylalanine uptake). It is filed as cell-based. The following applies: read-out: IC50 against Plasmodium falciparum.
Procedure: All cultures were maintained in a microaerophilic environment containing 1% oxygen/5% CO2 with the balance being nitrogen. […] Control cultures contained the same quantity of DMSO or water as that used in the experimental trials. Data were reported as IC50 values.
Parasite cultures, adjusted to 0.1-0.5% parasitemia by addition of freshly washed human erythrocytes, were pipetted into 96 well culture plates by adding 10 μl of a 50% cell suspension to each well to give a final volume of 5 μl of packed erythrocytes per well. The test compounds in RPMI 1640 were added at 95 μl per well to four wells per each concentration of test compound. Quadruplicate control wells were treated similarly with DMSO or water added without the test compounds present. The cultures were gassed and exposed to radiolabeled ^3[H]-phenylalanine (1 microcurie per well) for the final 24 hour of treatment. Cultures were monitored for bacterial contamination and for parasite viability by Giemsa staining of thin films. Ultimately, the cells were harvested onto glass-fiber filters, followed by liquid scintillation counting. The IC50 for each compound was determined by linear regression analysis using 50% of the control counts as the regression point. The experiment was repeated three times, the data averaged, and the standard deviation of the mean determined.
The subject of data set [10] is human cancer cell line BT20 (breast epithelial cancer). As to the kind of experiment: CellTiter 96 cell proliferation assay, BT20. It counts as cell-based. The following applies: BT-20, 50% viability, 96 hours incubation.
Procedure: (§2) The BT20 cells were grown in the medium recommended by ATCC and were seeded into 96 well clear flat bottom plates at 3000 cells per well in 100 μl. The primary mammary cells were cultured as recommended by the manufacturer in mammary epithelial cell growth media (MEGM®) and were seeded at 3200 cells per well in 100 μl.
(§3) Each plate also contained some wells with cells plus medium only and some wells with medium only as controls. After addition of the compounds, the plates were incubated at 37° C. for 48 hours or 96 hours for the HMEC and BT20 cell lines, respectively.
(§4) The proliferation assay was performed using the manufacturer's protocols; a 20:1 solution of MTS and PMS was mixed and 10 to 40 μl was added to each well depending on the total volume in the wells. The plates were incubated at 37° C. for one to four hours, and the OD490 was determined. The OD reading of all wells was corrected for background by subtracting the reading of wells containing medium only. The wells containing cells only were used as a control for 100% viability.
Another data set is described as follows: in vitro. To be noted: human, primary mammary epithelial cells (HMEC).

Procedure for in vitro: as §2, §3, §4

Take `Nc1[nH]c(=O)ncc1F` [Flucytosine]: the MIC in data set [1] is reported as 1.0 μml^−1; in data set [2] it was 0.5 μml^−1; in data set [3], 16 μml^−1; in data set [4], 0.5 μml^−1; in data set [5] it was 0.12 μml^−1; in [6] it was “<=0.06 μml^−1”. In addition, the MIC in data set [7] is recorded as 8 μml^−1; in [8], “<=0.06 μml^−1”.

As to `CCN(CC)CCCC(C)Nc1ccnc2cc(Cl)ccc12` (centres unmarked) [chloroquine], the half-maximal inhibitory concentration (IC50) (usually the point on the concentration scale where inhibition reaches its midpoint) in data set [9] was found to be 7 ng/mL (≈ 0.0219 µM).

In data set [10], `CC(=O)O[C@H]1C(=O)[C@@]2(C)[C@H]([C@H](OC(=O)c3ccccc3)[C@]3(O)C[C@H](OC(=O)[C@H](O)[C@@H](NC(=O)c4ccccc4)c4ccccc4)C(C)=C1C3(C)C)[C@]1(OC(C)=O)CO[C@@H]1C[C@@H]2O` [taxol] registered a half-maximal inhibitory concentration (IC50) of 9 ng/mL (≈ 0.0105 µM). Moreover, the half-maximal inhibitory concentration (IC50) at 48 h in the data set “in vitro” was in the range of 25000 to 30000 ng/mL (≈ 29.3 to 35.1 µM).
